The text below walks through data of patent US11814367B2, “Inhibitors of glycogen synthase 1 (GYS1) and methods of use thereof” (Maze Therapeutics, Inc., priority 2021, dated 2023).

pIC50: −log10 of the molar value.

The target of assay [1] is hGYS1 enzyme (recombinant hGYS1/GN1 protein) (Homo sapiens (Human), UniProt P13807). Description: GYS1 coupled enzyme assay (PK/LDH). As to conditions: hGYS1/GN1 50 nM, UDP-Glucose 0.8 mM, G6P 1 mM; geometric mean of at least 2 runs. The format is biochemical.
Assay [2] relates to hGYS1 enzyme / glycogen synthesis in HeLa cells. Description: GYS1 cell based assay (glycogen synthesis, Glucose-glo). Details: species or system human. As to conditions: Homo sapiens, HeLa, 24 h, 24 h incubation, 20 mM glucose, geometric mean of at least 2 runs. The method in brief:
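HeLa cells starved 24 h in medium containing only 1× Glutamax were plated onto compound in medium with 20 mM glucose (1% DMSO final) for 24 h, 37 °C, 5% CO2. Acid lysates were Tris-quenched, glucoamylase-digested (pH 5.3, 1 h, 37 °C) and read by Glucose-glo luminescence. IC50 came from Hill fits, as geometric mean of ≥2 runs.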

Sequence of hGYS1 enzyme (recombinant hGYS1/GN1 protein) (P13807 whole entry): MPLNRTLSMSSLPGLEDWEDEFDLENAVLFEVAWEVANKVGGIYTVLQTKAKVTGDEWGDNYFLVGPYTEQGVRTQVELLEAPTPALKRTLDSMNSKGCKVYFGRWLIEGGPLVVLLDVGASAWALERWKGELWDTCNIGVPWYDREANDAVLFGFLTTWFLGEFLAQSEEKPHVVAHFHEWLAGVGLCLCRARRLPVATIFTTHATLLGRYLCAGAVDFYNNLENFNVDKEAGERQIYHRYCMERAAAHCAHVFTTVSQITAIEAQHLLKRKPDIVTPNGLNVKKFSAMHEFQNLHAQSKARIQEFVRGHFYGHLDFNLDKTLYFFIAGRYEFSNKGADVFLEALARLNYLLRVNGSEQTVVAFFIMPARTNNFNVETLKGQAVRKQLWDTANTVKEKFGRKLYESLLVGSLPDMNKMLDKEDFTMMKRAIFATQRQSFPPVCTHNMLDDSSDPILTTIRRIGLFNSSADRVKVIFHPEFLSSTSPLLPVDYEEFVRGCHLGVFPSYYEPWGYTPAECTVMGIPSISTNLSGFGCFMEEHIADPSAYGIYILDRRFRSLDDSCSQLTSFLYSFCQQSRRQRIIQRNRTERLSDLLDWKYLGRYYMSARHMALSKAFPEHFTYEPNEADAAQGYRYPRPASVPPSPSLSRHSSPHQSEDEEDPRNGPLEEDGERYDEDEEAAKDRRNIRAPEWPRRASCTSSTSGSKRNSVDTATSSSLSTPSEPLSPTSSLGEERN
Sequence of hGYS1 enzyme (recombinant hGYS1/GN1 protein) (P46976 whole entry partner): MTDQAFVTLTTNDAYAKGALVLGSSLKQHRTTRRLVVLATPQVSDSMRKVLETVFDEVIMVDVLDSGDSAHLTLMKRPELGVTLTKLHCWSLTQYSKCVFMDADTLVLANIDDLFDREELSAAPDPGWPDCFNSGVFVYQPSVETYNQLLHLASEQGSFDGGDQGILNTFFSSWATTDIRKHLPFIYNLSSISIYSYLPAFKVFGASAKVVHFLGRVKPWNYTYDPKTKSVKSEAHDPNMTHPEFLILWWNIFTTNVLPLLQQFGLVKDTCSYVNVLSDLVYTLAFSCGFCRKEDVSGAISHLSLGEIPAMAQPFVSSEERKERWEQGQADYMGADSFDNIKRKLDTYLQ

For the compound `CC(=O)N1C[C@H](F)C[C@H]1C(=O)NC(c1cccc(-c2cc(C)n[nH]2)c1)c1ccc(C(C)C)c(F)n1` (single isomer, unassigned) [Compound 696, (2S,4R)-1-acetyl-4-fluoro-N-[(S) or (R)-[6-fluoro-5-(propan-2-yl)pyridin-2-yl][3-(3-methyl-1H-pyrazol-5-yl)phenyl]methyl] pyrrolidine-2-carboxamide], the pIC50 is 6.99 in assay [1] and 5.57 in assay [2].

For `CC(=O)N(C)[C@H](C)C(=O)N1C[C@H](F)C[C@H]1C(=O)N[C@@H](c1ccccc1)c1ccc(C(C)C)cc1` [Compound 145, (2S,4R)-4-fluoro-1-[(2R)-2-(N-methylacetamido)propanoyl]-N-[(S)-phenyl[4-(propan-2-yl)phenyl]methyl]pyrrolidine-2-carboxamide], the pIC50 in assay [1] was 6.04; in assay [2], less than 5.00.

Consider `CC(=O)N1CCOCC1C(=O)N1C[C@H](F)C[C@H]1C(=O)N[C@@H](c1ccccc1)c1ccc(C(C)C)cc1` (stereo partly drawn) [Compound 149, (2S,4R)-1-(4-acetylmorpholine-3-carbonyl)-4-fluoro-N-[(S)-phenyl[4-(propan-2-yl)phenyl]methyl]pyrrolidine-2-carboxamide], for which the pIC50 is 6.48 in assay [1] and less than 5.00 in assay [2].

`CC(=O)N1C[C@H]2CC[C@H](C(=O)N3C[C@H](F)C[C@H]3C(=O)N[C@@H](c3ccccc3)c3ccc(C(C)C)cc3)[C@H]2C1` [Compound 177, (2S,4R)-1-[(3aS,4S,6aS)-2-acetyl-octahydrocyclopenta[c]pyrrole-4-carbonyl]-4-fluoro-N-[(S)-phenyl[4-(propan-2-yl)phenyl]methyl]pyrrolidine-2-carboxamide]: the pIC50 was 6.46 in assay [1] and 5.68 in assay [2].

`CC(=O)N1C[C@@H]2C[C@@H]2[C@H]1C(=O)N[C@@H](c1ccccc1)c1ccc(C(C)C)cc1` [Compound 201, (1S,2S,5R)-3-acetyl-N-[(S)-phenyl[4-(propan-2-yl)phenyl]methyl]-3-azabicycl[3.1.0]hexane-2-carboxamide]: the pIC50 is 6.34 in assay [1] and 5.43 in assay [2].

Regarding `CC(C)c1ccc([C@@H](NC(=O)[C@@H]2C[C@@H](F)CN2C(=O)Cc2noc(=O)n2C)c2ccccc2)nc1` [Compound 267, (2S,4R)-4-fluoro-1-[2-(4-methyl-5-oxo-4,5-dihydro-1,2,4-oxadiazol-3-yl)acetyl]-N-[(S)-phenyl[5-(propan-2-yl)pyridin-2-yl]methyl]pyrrolidine-2-carboxamide], the pIC50 in assay [1] is 6.33; in assay [2], 5.37.

In the case of `CC(C)c1ccc([C@@H](NC(=O)[C@@H]2C[C@@H](F)CN2C(=O)Cn2cnnc2)c2ccccc2)nc1` [Compound 285, (2S,4R)-4-fluoro-N-[(S)-phenyl[5-(propan-2-yl)pyridin-2-yl]methyl]-1-[2-(4H-1,2,4-triazol-4-yl)acetyl]pyrrolidine-2-carboxamide], the pIC50 in assay [1] is 6.83; in assay [2], less than 4.73.

`CC(C)c1ccc([C@@H](NC(=O)[C@@H]2C[C@@H](F)CN2C(=O)Cc2noc(=O)[nH]2)c2ccccc2)nc1` [Compound 286, (2S,4R)-4-fluoro-1-[2-(5-oxo-4,5-dihydro-1,2,4-oxadiazol-3-yl)acetyl]-N-[(S)-phenyl[5-(propan-2-yl)pyridin-2-yl]methyl]pyrrolidine-2-carboxamide]: the pIC50 in assay [1] was 6.83; in assay [2] it was less than 4.52.

With `O=C(N[C@@H](c1ccccc1)c1ccc(C2CC2)c(F)n1)[C@@H]1C[C@@H](F)CN1C(=O)Cc1cccn2c(=O)[nH]nc12` [Compound 297, (2S,4R)-N-[(S)-(5-cyclopropyl-6-fluoropyridin-2-yl)(phenyl)methyl]-4-fluoro-1-(2-{3-oxo-2H,3H-[1,2,4]triazolo[4,3-a]pyridin-8-yl}acetyl)pyrrolidine-2-carboxamide], the pIC50 is 7.82 in assay [1] and 6.15 in assay [2].

For the compound `CC(C)c1ccc([C@@H](NC(=O)[C@@H]2C[C@@H](F)CN2C(=O)Cc2nn(C)c(=O)[nH]2)c2ccccc2)nc1F` [Compound 397, (2S,4R)-4-fluoro-N-[(S)-[6-fluoro-5-(propan-2-yl)pyridin-2-yl](phenyl)methyl]-1-[2-(1-methyl-5-oxo-4,5-dihydro-1H-1,2,4-triazol-3-yl)acetyl] pyrrolidine-2-carboxamide], the pIC50 in assay [1] is 8.05; in assay [2] it was 6.40.

On to `O=C(N[C@@H](c1ccccc1)c1ccc(C2CC2)c(F)c1)[C@@H]1C[C@@H](F)CN1C(=O)CN1CCOCC1=O` [Compound 423, (2S,4R)-N-[(S)-(4-cyclopropyl-3-fluorophenyl)(phenyl)methyl]-4-fluoro-1-[2-(3-oxomorpholin-4-yl)acetyl]pyrrolidine-2-carboxamide], for which the pIC50 in assay [1] is 6.46; in assay [2], less than 5.03.

Take `O=C(N[C@@H](c1ccccc1)c1ccc(C2CC2)c(F)c1)[C@@H]1C[C@@H](F)CN1C(=O)Cc1cc2ccccc2[nH]1` [Compound 460, (2S,4R)-N-[(S)-(4-cyclopropyl-3-fluorophenyl)(phenyl)methyl]-4-fluoro-1-[2-(1H-indol-2-yl)acetyl] pyrrolidine-2-carboxamide]: the pIC50 in assay [1] is 6.73; in assay [2], 5.62.

Turning to `CC(C)(C)OC(=O)n1c(CC(=O)N2C[C@H](F)C[C@H]2C(=O)N[C@@H](c2ccccc2)c2ccc(C3CC3)c(F)c2)cc2ccccc21` [Compound 461, tert-butyl 2-{2-[(2S,4R)-2-{[(S)-(4-cyclopropyl-3-fluorophenyl)(phenyl)methyl]carbamoyl}-4-fluoropyrrolidin-1-yl]-2-oxoethyl}-1H-indole-1-carboxylate], the pIC50 in assay [1] is 7.59; in assay [2], 6.24.

Take `CCn1cc(N(C)CC(=O)N2C[C@H](F)C[C@H]2C(=O)N[C@@H](c2ccccc2)c2ccc(C3CC3)c(F)c2)nn1` [Compound 473, (2S,4R)-N-[(S)-(4-cyclopropyl-3-fluorophenyl)(phenyl)methyl]-1-{2-[(1-ethyl-1H-1,2,3-triazol-4-yl)(methyl)amino]acetyl}-4-fluoropyrrolidine-2-carboxamide]: the figures for the pIC50 in assay [1] and in assay [2] were 7.00 and 5.75, respectively.

In the case of `O=C(N[C@@H](c1ccccc1)c1ccc(C2CC2)c(F)c1)[C@@H]1C[C@@H](F)CN1C(=O)CCc1n[nH]c(=O)[nH]1` [Compound 493, (2S,4R)-N-[(S)-(4-cyclopropyl-3-fluorophenyl)(phenyl)methyl]-4-fluoro-1-[3-(5-oxo-4,5-dihydro-1H-1,2,4-triazol-3-yl)propanoyl]pyrrolidine-2-carboxamide], the pIC50 is 6.99 in assay [1] and 4.80 in assay [2].

Consider `Cn1c(CC(=O)N2C[C@H](F)C[C@H]2C(=O)N[C@@H](c2ccccc2)c2ccc(C3CC3)c(F)c2)noc1=O` [Compound 494, (2S,4R)-N-[(S)-(4-cyclopropyl-3-fluorophenyl)(phenyl)methyl]-4-fluoro-1-[2-(4-methyl-5-oxo-4,5-dihydro-1,2,4-oxadiazol-3-yl)acetyl]pyrrolidine-2-carboxamide], for which the negative logarithm of the IC50 (pIC50) in assay [1] is 6.18; in assay [2], 4.91.

`O=C(N[C@H](c1ccccc1)c1ccc(C2CC(F)(F)C2)c(F)n1)[C@@H]1C[C@@H](F)CN1C(=O)Cc1ccc[nH]c1=O` [Compound 521, (2S,4R)-N-[(R)-[5-(3,3-difluorocyclobutyl)-6-fluoropyridin-2-yl](phenyl)methyl]-4-fluoro-1-[2-(2-oxo-1,2-dihydropyridin-3-yl)acetyl]pyrrolidine-2-carboxamide]: the pIC50 in assay [1] was 5.58; in assay [2], less than 4.52.

As a reminder, the pIC50 is the IC50 on a negative log10 scale, so that one unit is a factor of ten.
